Data published in patent US20020091124A1, “2-acyl indole derivatives and their use as antitumor agents” (priority 2000, published 2002).
In brackets after ≈: the same amount, converted by molar mass.

Key:
[1] = system: human cervical carcinoma cell line KB/HeLa; assay: XTT cytotoxicity test, KB/HeLa; format: cell-based; conditions: read-out: Zytotoxizität KB/HeLa IC50
[2] = system: T1, bovine brain tubulin; assay: Bovine tubulin polymerization assay; format: biochemical; conditions: inhibition of tubulin polymerization; read-out: Tubulin-hemmung/ IC50
T1 construct: The tubulin used in the assay was isolated from bovine brain using cycles of polymerization and depolymerization
Description: In an in vitro test, selected compounds were tested for inhibition of polymerization of bovine brain. In this test, tubulin purified by cycles of polymerization and depolymerization, polymerization being initiated by addition of GTP and heating, is used.
The tubulin used in the assay was isolated from bovine brain using cycles of polymerization and depolymerization. […] The appropriate amount of test substance, dissolved in 100% DMSO, is pipetted to this mixture. 10 μl of purified bovine tubulin (50-60 μg of tubulin per well) are then added. […] 200 μl/well of decolorizing solution (25 mM NaOH, 50% ethanol, 0.05 mM EDTA) are finally added using a pipette. Following a 20 minute incubation at room temperature on a shaker (400 rpm), the absorption of 600 nm [sic] is measured in a photometer. What is calculated is the inhibition in % based on the 100% value of a positive control (which contains no test substance), and/or, if a concentration/activity curve is plotted, the lC50 value.

SMILES	IC50 [2]	IC50 [1]
COc1ccc2[nH]c(C(=O)c3ccc(Br)cc3)cc2c1 [Example D-65499, 5-methoxy-1H-2-indolyl(4-bromophenyl)-1-methanone]	4300 nM	~0.3 µg/mL (≈ 0.909 µM)
COc1ccc2[nH]c(C(=O)c3ccc(Cl)cc3)cc2c1 [Example D-65500, 5-methoxy-1H-2-indolyl(4-chlorophenyl)-1-methanone]	4980 nM	~1 µg/mL (≈ 3.5 µM)
COc1ccc2[nH]c(C(=O)c3cccc4ccccc34)cc2c1 [Example D-68213, 5-methoxy-1H-2-indolyl(1-naphthalenyl)-1-methanone]	2930 nM	~0.1 µg/mL (≈ 0.332 µM)
COc1ccc2[nH]c(C(=O)c3ccc(C)cc3)cc2c1 [Example D-68887, 5-methoxy-1H-2-indolyl(4-methylphenyl)-1-methanone]	1500 nM	~0.3 µg/mL (≈ 1.13 µM)
COc1ccc2[nH]c(C(=O)c3cc(C)ccc3C)cc2c1 [Example D-68906, 5-methoxy-1H-2-indolyl(2,5-dimethylphenyl)-1-methanone]	5190 nM	~0.2 µg/mL (≈ 0.716 µM)
COc1ccc2[nH]c(C(=O)c3ccccc3C)cc2c1 [Example D-70038, 5-methoxy-1H-2-indolyl(2-methylphenyl)-1-methanone]	4840 nM	~0.5 µg/mL (≈ 1.88 µM)
NCOc1c(C(=O)c2ccccc2N)[nH]c2ccc(O)cc12 [Example D-70046]	2440 nM	~2 µg/mL (≈ 6.73 µM)
COc1ccc2[nH]c(C(=O)c3ccccc3N)cc2c1 [Example D-70047, 5-methoxy-1H-2-indolyl(2-aminophenyl)-1-methanone]	6680 nM	~2 µg/mL (≈ 7.51 µM)
COc1ccccc1C(=O)c1cc2cc(C)ccc2[nH]1 [Example D-70289, 5-methyl-1H-2-indolyl(2-methoxyphenyl)-1-methanone]	3540 nM	~0.1 µg/mL (≈ 0.377 µM)
COc1ccc2[nH]c(C(=O)c3cccs3)cc2c1 [Example D-70438]	2700 nM	
COc1ccc2[nH]c(C(=O)c3cccc(OC(F)(F)F)c3)cc2c1 [Example D-81194]	1740 nM	0.086 µg/mL (≈ 0.257 µM)
COc1ccc2[nH]c(C(=O)c3cccc(SC(F)F)c3)cc2c1 [Example D-81196]	2050 nM	0.134 µg/mL (≈ 0.402 µM)

The next lines start with results.

IC50 [2]	SMILES	IC50 [1]
1030 nM	COc1ccc2[nH]c(C(=O)c3ccccc3F)cc2c1 [Example D-68888, 2-fluorophenyl(5-methoxy-1H-2-indolyl)-1-methanone]	~0.2 µg/mL (≈ 0.743 µM)
1460 nM	COc1ccc2[nH]c(C(=O)c3cccc(C(F)(F)F)c3)cc2c1 [Example D-68901, 5-methoxy-1H-2-indolyl(3-trifluoromethylphenyl)-1-methanone]	~0.01 µg/mL (≈ 0.0313 µM)
990 nM	COc1ccc2[nH]c(C(=O)c3cccc(N)c3)cc2c1 [Example D-81167, 5-methoxy-1H-2-indolyl(3-aminophenyl)-1-methanone]	0.089 µg/mL (≈ 0.334 µM)
660 nM	COc1ccc2[nH]c(C(=O)c3cccc(O)c3)cc2c1 [Example D-81755]	0.063 µg/mL (≈ 0.236 µM)
850 nM	COc1ccc2[nH]c(C(=O)c3cccc(OC(=O)CCO)c3)cc2c1 [Example D-81756]	0.093 µg/mL (≈ 0.274 µM)
90 nM	CC[C@]1(O)C[C@H]2CN(CCc3c([nH]c4ccccc34)[C@@](C(=O)OC)(c3cc4c(cc3OC)N(C=O)[C@H]3[C@@](O)(C(=O)OC)[C@H](OC(C)=O)[C@]5(CC)C=CCN6CC[C@]43[C@@H]65)C2)C1 [Vincristin, Vincristine, reference compound]	
